Laboratory results as given in ChEMBL document CHEMBL3792311, “In vitro and in vivo activity of ML302F: a thioenolate inhibitor of VIM-subfamily metallo -lactamases” (Medchemcomm, 2016).
Active and inactive are the calls of the source. The calls are words filed in the database; no cut-off is given here.

Experiments:
Pseudomonas aeruginosa [1] = test: Potentiation of meropenem-induced antibacterial activity against VIM2 carbapenemase producing multidrug-resistant Pseudomonas aeruginosa 16 clinical isolate assessed as MIC of meropenem at 1:8 meropenem:compound ratio by broth microtiter dilution method; format: functional
Pseudomonas aeruginosa [2] = test: Potentiation of meropenem-induced antibacterial activity against VIM2 carbapenemase producing multidrug-resistant Pseudomonas aeruginosa 27 clinical isolate assessed as MIC of meropenem at 1:8 meropenem:compound ratio by broth microtiter dilution method; format: functional
Enterobacter cloacae [3] = test: Potentiation of meropenem-induced antibacterial activity against VIM4 carbapenemase producing multidrug-resistant Enterobacter cloacae 102 clinical isolate assessed as MIC of meropenem at 1:8 meropenem:compound ratio by broth microtiter dilution method; format: functional
Klebsiella oxytoca = test: Potentiation of meropenem-induced antibacterial activity against VIM4 carbapenemase producing multidrug-resistant Klebsiella oxytoca 95 clinical isolate assessed as MIC of meropenem at 1:8 meropenem:compound ratio by broth microtiter dilution method; format: functional
Klebsiella pneumoniae [4] = test: Potentiation of meropenem-induced antibacterial activity against VIM4 carbapenemase producing multidrug-resistant Klebsiella pneumoniae 101 clinical isolate assessed as MIC of meropenem at 1:8 meropenem:compound ratio by broth microtiter dilution method; format: functional
Klebsiella pneumoniae [5] = test: Potentiation of meropenem-induced antibacterial activity against VIM4 carbapenemase producing multidrug-resistant Klebsiella pneumoniae 120 clinical isolate assessed as MIC of meropenem at 1:8 meropenem:compound ratio by broth microtiter dilution method; format: functional
Klebsiella pneumoniae [6] = test: Potentiation of meropenem-induced antibacterial activity against VIM4 carbapenemase producing multidrug-resistant Klebsiella pneumoniae 128 clinical isolate assessed as MIC of meropenem at 1:8 meropenem:compound ratio by broth microtiter dilution method; format: functional
Klebsiella pneumoniae [7] = test: Potentiation of meropenem-induced antibacterial activity against VIM1 carbapenemase producing multidrug-resistant Klebsiella pneumoniae 177 clinical isolate at 1:8 meropenem:compound ratio by checkerboard method; format: functional
Pseudomonas aeruginosa [8] = test: Potentiation of meropenem-induced antibacterial activity against VIM2 carbapenemase producing multidrug-resistant Pseudomonas aeruginosa 30 clinical isolate at 1:8 meropenem:compound ratio by checkerboard method; format: functional
Klebsiella pneumoniae [9] = test: Potentiation of meropenem-induced antibacterial activity against VIM1 carbapenemase producing multidrug-resistant Klebsiella pneumoniae 177 clinical isolate assessed as MIC of meropenem at 1:8 meropenem:compound ratio by broth microtiter dilution method; format: functional
Pseudomonas aeruginosa [10] = test: Potentiation of meropenem-induced antibacterial activity against VIM2 carbapenemase producing multidrug-resistant Pseudomonas aeruginosa GR57 clinical isolate assessed as MIC of meropenem at 1:8 meropenem:compound ratio by broth microtiter dilution method; format: functional
Pseudomonas aeruginosa [11] = test: Potentiation of meropenem-induced antibacterial activity against VIM2 carbapenemase producing multidrug-resistant Pseudomonas aeruginosa GR58 clinical isolate assessed as MIC of meropenem at 1:8 meropenem:compound ratio by broth microtiter dilution method; format: functional
Pseudomonas aeruginosa [12] = test: Potentiation of meropenem-induced antibacterial activity against VIM2 carbapenemase producing multidrug-resistant Pseudomonas aeruginosa 9 clinical isolate assessed as MIC of meropenem at 1:8 meropenem:compound ratio by broth microtiter dilution method; format: functional
Pseudomonas aeruginosa [13] = test: Potentiation of meropenem-induced antibacterial activity against VIM2 carbapenemase producing multidrug-resistant Pseudomonas aeruginosa 13 clinical isolate assessed as MIC of meropenem at 1:8 meropenem:compound ratio by broth microtiter dilution method; format: functional
Klebsiella pneumoniae [14] = test: Antibacterial activity against VIM4 carbapenemase producing multidrug-resistant Klebsiella pneumoniae 120 clinical isolate infected in Galleria mellonella larvae assessed as survival rate at 4.8 mg/kg measured at 96 hrs; format: functional, organism-based
Escherichia coli [15] = test: Antibacterial activity against VIM4 carbapenemase producing multidrug-resistant Escherichia coli 98 clinical isolate infected in Galleria mellonella larvae assessed as survival rate at 4.8 mg/kg measured at 96 hrs; format: functional, organism-based
Klebsiella pneumoniae [16] = test: Potentiation of meropenem-induced antibacterial activity against VIM4 carbapenemase producing multidrug-resistant Klebsiella pneumoniae 120 clinical isolate infected in Galleria mellonella larvae assessed as relative risk of survival at 4.8 mg/kg measured at 96 hrs relative to control; format: functional
Pseudomonas aeruginosa [17] = test: Potentiation of meropenem-induced antibacterial activity against VIM2 carbapenemase producing multidrug-resistant Pseudomonas aeruginosa GR57 clinical isolate infected in Galleria mellonella larvae assessed as relative risk of survival at 4.8 mg/kg measured at 96 hrs relative to control; format: functional
Providencia stuartii = test: Antibacterial activity against VIM1 carbapenemase producing multidrug-resistant Providencia stuartii 67 clinical isolate up to 512 mg/L by broth microtiter dilution method; format: functional, organism-based
Pseudomonas aeruginosa [18] = test: Antibacterial activity against VIM2 carbapenemase producing multidrug-resistant Pseudomonas aeruginosa 30 clinical isolate up to 512 mg/L by broth microtiter dilution method; format: functional, organism-based
Pseudomonas aeruginosa [19] = test: Antibacterial activity against VIM2 carbapenemase producing multidrug-resistant Pseudomonas aeruginosa 50 clinical isolate up to 512 mg/L by broth microtiter dilution method; format: functional, organism-based
Pseudomonas aeruginosa [20] = test: Antibacterial activity against VIM2 carbapenemase producing multidrug-resistant Pseudomonas aeruginosa GR64 clinical isolate up to 512 mg/L by broth microtiter dilution method; format: functional, organism-based
Pseudomonas aeruginosa [21] = test: Antibacterial activity against VIM2 carbapenemase producing multidrug-resistant Pseudomonas aeruginosa 8 clinical isolate up to 512 mg/L by broth microtiter dilution method; format: functional, organism-based
Pseudomonas aeruginosa [22] = test: Antibacterial activity against VIM2 carbapenemase producing multidrug-resistant Pseudomonas aeruginosa 14 clinical isolate up to 512 mg/L by broth microtiter dilution method; format: functional, organism-based
Enterobacter cloacae [23] = test: Antibacterial activity against VIM4 carbapenemase producing multidrug-resistant Enterobacter cloacae 102 clinical isolate up to 512 mg/L by broth microtiter dilution method; format: functional, organism-based
Escherichia coli [24] = test: Antibacterial activity against VIM4 carbapenemase producing multidrug-resistant Escherichia coli 98 clinical isolate up to 512 mg/L by broth microtiter dilution method; format: functional, organism-based
Pseudomonas aeruginosa [25] = test: Potentiation of meropenem-induced antibacterial activity against VIM2 carbapenemase producing multidrug-resistant Pseudomonas aeruginosa 47 clinical isolate at 1:8 meropenem:compound ratio by checkerboard method; format: functional
Pseudomonas aeruginosa [26] = test: Potentiation of meropenem-induced antibacterial activity against VIM2 carbapenemase producing multidrug-resistant Pseudomonas aeruginosa 50 clinical isolate at 1:8 meropenem:compound ratio by checkerboard method; format: functional
Pseudomonas aeruginosa [27] = test: Potentiation of meropenem-induced antibacterial activity against VIM2 carbapenemase producing multidrug-resistant Pseudomonas aeruginosa GR58 clinical isolate at 1:8 meropenem:compound ratio by checkerboard method; format: functional
Pseudomonas aeruginosa [28] = test: Potentiation of meropenem-induced antibacterial activity against VIM2 carbapenemase producing multidrug-resistant Pseudomonas aeruginosa 3 clinical isolate at 1:8 meropenem:compound ratio by checkerboard method; format: functional
Pseudomonas aeruginosa [29] = test: Potentiation of meropenem-induced antibacterial activity against VIM2 carbapenemase producing multidrug-resistant Pseudomonas aeruginosa 9 clinical isolate at 1:8 meropenem:compound ratio by checkerboard method; format: functional
Pseudomonas aeruginosa [30] = test: Potentiation of meropenem-induced antibacterial activity against VIM2 carbapenemase producing multidrug-resistant Pseudomonas aeruginosa 11 clinical isolate at 1:8 meropenem:compound ratio by checkerboard method; format: functional
Pseudomonas aeruginosa [31] = test: Potentiation of meropenem-induced antibacterial activity against VIM2 carbapenemase producing multidrug-resistant Pseudomonas aeruginosa 6 clinical isolate at 1:8 meropenem:compound ratio by checkerboard method; format: functional
Pseudomonas aeruginosa [32] = test: Potentiation of meropenem-induced antibacterial activity against VIM2 carbapenemase producing multidrug-resistant Pseudomonas aeruginosa 13 clinical isolate at 1:8 meropenem:compound ratio by checkerboard method; format: functional
Pseudomonas aeruginosa [33] = test: Potentiation of meropenem-induced antibacterial activity against VIM2 carbapenemase producing multidrug-resistant Pseudomonas aeruginosa 14 clinical isolate at 1:8 meropenem:compound ratio by checkerboard method; format: functional

Q: What does the source list for `O=C(O)/C(S)=C/c1c(Cl)ccc(Cl)c1Cl`?
A: MIC (Pseudomonas aeruginosa [1]): 16 mg/L; MIC (Pseudomonas aeruginosa [2]): 16 mg/L; MIC (Enterobacter cloacae [3]): 4 mg/L; MIC (Klebsiella oxytoca): 8 mg/L; MIC (Klebsiella pneumoniae [4]): 2 mg/L; MIC (Klebsiella pneumoniae [5]): 2 mg/L; MIC (Klebsiella pneumoniae [6]): 1 mg/L; fractional inhibitory concentration index (FICI) (Klebsiella pneumoniae [7]): 1.02; fractional inhibitory concentration index (FICI) (Pseudomonas aeruginosa [8]): 0.25; MIC (Klebsiella pneumoniae [9]): 1 mg/L; MIC (Pseudomonas aeruginosa [10]): 4 mg/L; MIC (Pseudomonas aeruginosa [11]): 8 mg/L; MIC (Pseudomonas aeruginosa [12]): 16 mg/L; MIC (Pseudomonas aeruginosa [13]): 16 mg/L; Activity (Klebsiella pneumoniae [14]): Active; Activity (Escherichia coli [15]): Active; fold change (FC) (Klebsiella pneumoniae [16]): 0.7; fold change (FC) (Pseudomonas aeruginosa [17]): 0.28; Activity (Providencia stuartii): inactive; Activity (Pseudomonas aeruginosa [18]): inactive; Activity (Pseudomonas aeruginosa [19]): inactive; Activity (Pseudomonas aeruginosa [20]): inactive; Activity (Pseudomonas aeruginosa [21]): inactive; Activity (Pseudomonas aeruginosa [22]): inactive; Activity (Enterobacter cloacae [23]): inactive; Activity (Escherichia coli [24]): inactive; fractional inhibitory concentration index (FICI) (Pseudomonas aeruginosa [25]): 0.05; fractional inhibitory concentration index (FICI) (Pseudomonas aeruginosa [26]): 0.38; fractional inhibitory concentration index (FICI) (Pseudomonas aeruginosa [27]): 0.38; fractional inhibitory concentration index (FICI) (Pseudomonas aeruginosa [28]): 0.25; fractional inhibitory concentration index (FICI) (Pseudomonas aeruginosa [29]): 0.38; fractional inhibitory concentration index (FICI) (Pseudomonas aeruginosa [30]): 0.09; fractional inhibitory concentration index (FICI) (Pseudomonas aeruginosa [31]): 0.38; fractional inhibitory concentration index (FICI) (Pseudomonas aeruginosa [32]): 0.75; fractional inhibitory concentration index (FICI) (Pseudomonas aeruginosa [33]): 0.06
